Results published in PubChem BioAssay (NCI).
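Tested at 5 concentrations; 48 h exposure; 96-well plates; endpoints linearly interpolated, else capped at highest concentration. GI50 marks 50% less growth. Definition used: TGI = concentration required for complete inhibition of growth.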

Experiments:
Experiment in all cases: growth of human tumour cells (NCI), 48 h
786-0 renal = tested on: 786-0 renal
A498 renal = tested on: A498 renal
A549 NSCLC = tested on: A549 NSCLC
ACHN renal = tested on: ACHN renal
BT-549 breast = tested on: BT-549 breast
CAKI-1 renal = tested on: CAKI-1 renal
CCRF-CEM leukemia = tested on: CCRF-CEM leukemia
COLO 205 colon = tested on: COLO 205 colon
DU-145 prostate = tested on: DU-145 prostate
EKVX NSCLC = tested on: EKVX NSCLC
HCC-2998 colon = tested on: HCC-2998 colon
HCT-116 colon = tested on: HCT-116 colon
HCT-15 colon = tested on: HCT-15 colon
HL-60(TB) leukemia = tested on: HL-60(TB) leukemia
HOP-62 NSCLC = tested on: HOP-62 NSCLC
HOP-92 NSCLC = tested on: HOP-92 NSCLC
HS 578T breast = tested on: HS 578T breast
HT29 colon = tested on: HT29 colon
IGROV1 ovarian = tested on: IGROV1 ovarian
K-562 leukemia = tested on: K-562 leukemia
KM12 colon = tested on: KM12 colon
LOX IMVI melanoma = tested on: LOX IMVI melanoma
M14 melanoma = tested on: M14 melanoma
MALME-3M melanoma = tested on: MALME-3M melanoma
MCF7 breast = tested on: MCF7 breast
MDA-MB-231 breast = tested on: MDA-MB-231 breast
MDA-MB-435 = tested on: MDA-MB-435
MOLT-4 leukemia = tested on: MOLT-4 leukemia
NCI-H226 lung = tested on: NCI-H226 lung
NCI-H460 lung = tested on: NCI-H460 lung
NCI-H522 lung = tested on: NCI-H522 lung
NCI/ADR-RES ovarian = tested on: NCI/ADR-RES ovarian
OVCAR-3 ovarian = tested on: OVCAR-3 ovarian
OVCAR-4 ovarian = tested on: OVCAR-4 ovarian
OVCAR-5 ovarian = tested on: OVCAR-5 ovarian
OVCAR-8 ovarian = tested on: OVCAR-8 ovarian
PC-3 prostate = tested on: PC-3 prostate
RPMI-8226 leukemia = tested on: RPMI-8226 leukemia
RXF 393 renal = tested on: RXF 393 renal
SF-268 CNS = tested on: SF-268 CNS
SF-295 CNS = tested on: SF-295 CNS
SF-539 CNS = tested on: SF-539 CNS
SK-MEL-2 melanoma = tested on: SK-MEL-2 melanoma
SK-MEL-28 melanoma = tested on: SK-MEL-28 melanoma
SK-MEL-5 melanoma = tested on: SK-MEL-5 melanoma
SK-OV-3 ovarian = tested on: SK-OV-3 ovarian
SN12C renal = tested on: SN12C renal
SNB-19 CNS = tested on: SNB-19 CNS
SNB-75 CNS = tested on: SNB-75 CNS
SR leukemia = tested on: SR leukemia
SW-620 colon = tested on: SW-620 colon
T-47D breast = tested on: T-47D breast
TK-10 renal = tested on: TK-10 renal
U251 CNS = tested on: U251 CNS
UACC-257 melanoma = tested on: UACC-257 melanoma
UACC-62 melanoma = tested on: UACC-62 melanoma
UO-31 renal = tested on: UO-31 renal

## CCNC(=O)N1CCc2cc(OC)c(OCCc3ccc(OC)nc3)cc2C1c1ccc(C)cc1C (centres undefined)
786-0 renal
  GI50: 687 nM
  TGI: > 100000 nM
A498 renal
  GI50: 1390 nM
  TGI: 14300 nM
A549 NSCLC
  GI50: 984 nM
  TGI: > 100000 nM
ACHN renal
  GI50: 662 nM
  TGI: 91100 nM
BT-549 breast
  GI50: 1550 nM
  TGI: 7450 nM
CAKI-1 renal
  GI50: 611 nM
  TGI: > 100000 nM
CCRF-CEM leukemia
  GI50: 519 nM
  TGI: 55000 nM
COLO 205 colon
  GI50: 792 nM
  TGI: 4170 nM
DU-145 prostate
  GI50: 858 nM
  TGI: 24000 nM
EKVX NSCLC
  GI50: 4030 nM
  TGI: > 100000 nM
HCC-2998 colon
  GI50: 1560 nM
  TGI: 17800 nM
HCT-116 colon
  GI50: 299 nM
  TGI: 20700 nM
HCT-15 colon
  GI50: 156 nM
  TGI: > 60200 nM
HL-60(TB) leukemia
  GI50: 651 nM
  TGI: 3820 nM
HOP-62 NSCLC
  GI50: 1350 nM
  TGI: > 37500 nM
HOP-92 NSCLC
  GI50: 4520 nM
  TGI: 27400 nM
HS 578T breast
  GI50: 1530 nM
  TGI: 10600 nM
HT29 colon
  GI50: 573 nM
  TGI: 10500 nM
IGROV1 ovarian
  GI50: 743 nM
  TGI: > 100000 nM
K-562 leukemia
  GI50: 259 nM
  TGI: > 100000 nM
KM12 colon
  GI50: 634 nM
  TGI: > 40400 nM
LOX IMVI melanoma
  GI50: 308 nM
  TGI: 5410 nM
M14 melanoma
  GI50: 722 nM
  TGI: 19300 nM
MALME-3M melanoma
  GI50: 1350 nM
  TGI: 50200 nM
MCF7 breast
  GI50: 443 nM
  TGI: > 100000 nM
MDA-MB-231 breast
  GI50: 1140 nM
  TGI: 30200 nM
MDA-MB-435
  GI50: 370 nM
  TGI: 5890 nM
MOLT-4 leukemia
  GI50: 416 nM
  TGI: 35500 nM
NCI-H226 lung
  GI50: 1730 nM
  TGI: 11400 nM
NCI-H460 lung
  GI50: 241 nM
  TGI: 6360 nM
NCI-H522 lung
  GI50: 523 nM
  TGI: 2720 nM
NCI/ADR-RES ovarian
  GI50: 659 nM
  TGI: 38800 nM
OVCAR-3 ovarian
  GI50: 1340 nM
  TGI: 24300 nM
OVCAR-4 ovarian
  GI50: 3300 nM
  TGI: > 100000 nM
OVCAR-5 ovarian
  GI50: 2020 nM
  TGI: > 100000 nM
OVCAR-8 ovarian
  GI50: 675 nM
  TGI: > 43100 nM
PC-3 prostate
  GI50: 719 nM
  TGI: > 71800 nM
RPMI-8226 leukemia
  GI50: 531 nM
  TGI: 3580 nM
RXF 393 renal
  GI50: 1070 nM
  TGI: 15000 nM
SF-268 CNS
  GI50: 927 nM
  TGI: 50100 nM
SF-295 CNS
  GI50: 574 nM
  TGI: 8800 nM
SF-539 CNS
  GI50: 501 nM
  TGI: 5230 nM
SK-MEL-2 melanoma
  GI50: 3330 nM
  TGI: 16400 nM
SK-MEL-28 melanoma
  GI50: 873 nM
  TGI: 32100 nM
SK-MEL-5 melanoma
  GI50: 839 nM
  TGI: 2710 nM
SK-OV-3 ovarian
  GI50: 2670 nM
  TGI: > 100000 nM
SN12C renal
  GI50: 1100 nM
  TGI: 15400 nM
SNB-19 CNS
  GI50: 837 nM
  TGI: > 100000 nM
SNB-75 CNS
  GI50: 667 nM
  TGI: > 23500 nM
SR leukemia
  GI50: 207 nM
  TGI: 2960 nM
SW-620 colon
  GI50: 466 nM
  TGI: > 100000 nM
T-47D breast
  GI50: 2680 nM
  TGI: 64500 nM
TK-10 renal
  GI50: 5000 nM
  TGI: > 100000 nM
U251 CNS
  GI50: 636 nM
  TGI: 17500 nM
UACC-257 melanoma
  GI50: 2290 nM
  TGI: 50500 nM
UACC-62 melanoma
  GI50: 430 nM
  TGI: 12200 nM
UO-31 renal
  GI50: 929 nM
  TGI: > 100000 nM
